Type in all cases: in vivo
Assay [1] has as its system velvetleaf (Abutilon theophrasti). The assay can be described thus: Preemergence herbicidal activity, velvetleaf. The settings on record: Rate of Application 0.3 Kg/Ha, examined after 12-17 days.
For assay [2], the system named is Johnsongrass (Sorghum halepense). Nature of the assay: Preemergence herbicidal activity, johnsongrass. The settings on record: Rate of Application 0.3 Kg/Ha, examined after 12-17 days.
Assay [3] deals with wheat (Triticum aestivum var. Lew). Nature of the assay: Postemergence herbicidal activity, wheat. Particulars: rate of application 0.3 Kg/Ha, rated after 12-17 days.
For assay [4], the system named is velvetleaf (Abutilon theophrasti). The assay can be described thus: Postemergence herbicidal activity, velvetleaf. The settings on record: rate of application 0.3 Kg/Ha, rated after 12-17 days.
Assay [5] has as its system common cocklebur (Xanthium strumarium L.). Nature of the assay: Preemergence herbicidal activity, cocklebur. The settings on record: Rate of Application 0.3 Kg/Ha, examined after 12-17 days.
Assay [6] has as its system wheat (Triticum aestivum var. Lew). Nature of the assay: Preemergence herbicidal activity, wheat. Particulars: Rate of Application 0.3 Kg/Ha, examined after 12-17 days.
The subject of assay [7] is field corn (Zea mays var. Pioneer 3732). The assay can be described thus: Postemergence herbicidal activity, corn. The settings on record: rate of application 0.3 Kg/Ha, rated after 12-17 days.
For assay [8], the system named is morningglory (Ipomea lacunosa or Ipomea hederacea). Nature of the assay: Postemergence herbicidal activity, morningglory. The settings on record: rate of application 0.3 Kg/Ha, rated after 12-17 days.
In assay [9] the test system is soybean (Glycine max var. Winchester). Nature of the assay: Preemergence herbicidal activity, soybean. The settings on record: Rate of Application 0.3 Kg/Ha, examined after 12-17 days.
Assay [10] shares this test system. The assay can be described thus: Postemergence herbicidal activity, soybean. Particulars: rate of application 0.3 Kg/Ha, rated after 12-17 days.
For assay [11], the system named is morningglory (Ipomea lacunosa or Ipomea hederacea). Nature of the assay: Preemergence herbicidal activity, morningglory. Particulars: Rate of Application 0.3 Kg/Ha, examined after 12-17 days.
Assay [12] deals with common chickweed (Stellaria media). The assay can be described thus: Preemergence herbicidal activity, chickweed. Particulars: Rate of Application 0.3 Kg/Ha, examined after 12-17 days.
Assay [13] deals with blackgrass (Aloepecurus myosuroides). Nature of the assay: Preemergence herbicidal activity, blackgrass. Particulars: Rate of Application 0.3 Kg/Ha, examined after 12-17 days.
For assay [14] the test system is unchanged. The assay can be described thus: Postemergence herbicidal activity, blackgrass. Particulars: rate of application 0.3 Kg/Ha, rated after 12-17 days.
The subject of assay [15] is common chickweed (Stellaria media). Nature of the assay: Postemergence herbicidal activity, chickweed. The settings on record: rate of application 0.3 Kg/Ha, rated after 12-17 days.
Assay [16] relates to common cocklebur (Xanthium strumarium L.). Nature of the assay: Postemergence herbicidal activity, cocklebur. Particulars: rate of application 0.3 Kg/Ha, rated after 12-17 days.
Assay [17] deals with green foxtail (Setaria viridis). The assay can be described thus: Preemergence herbicidal activity, green foxtail. The settings on record: Rate of Application 0.3 Kg/Ha, examined after 12-17 days.
The test system of assay [18] is Johnsongrass (Sorghum halepense). Nature of the assay: Postemergence herbicidal activity, johnsongrass. The settings on record: rate of application 0.3 Kg/Ha, rated after 12-17 days.
In assay [19] the test system is field corn (Zea mays var. Pioneer 3732). The assay can be described thus: Preemergence herbicidal activity, corn. The settings on record: Rate of Application 0.3 Kg/Ha, examined after 12-17 days.
For assay [20], the system named is green foxtail (Setaria viridis). Nature of the assay: Postemergence herbicidal activity, green foxtail. The settings on record: rate of application 0.3 Kg/Ha, rated after 12-17 days.

Regarding `Cn1c(C(F)(F)F)cc(=O)n(-c2c(F)cc(Cl)c3oc(C(C)(C)C)nc23)c1=O` [Compound 30], in [1], the “PREEMERGENCE HERBICIDAL ACTIVITY (% CONTROL) ABUTH” value is reported as 100%. In addition, the “PREEMERGENCE HERBICIDAL ACTIVITY (% CONTROL) SORHA” value in assay [2] was 100%. Moreover, in assay [3], the “Postemergence herbicidal activity (% control) WHT” value is 80%. In assay [4], the “Postemergence herbicidal activity (% control) ABUTH” value came to 100%. For the same compound, the “PREEMERGENCE HERBICIDAL ACTIVITY (% CONTROL) XANPE” value in assay [5] came out at 90%. The “PREEMERGENCE HERBICIDAL ACTIVITY (% CONTROL) WHT” value in assay [6] stood at 100%. Besides, the “Postemergence herbicidal activity (% control) CRN” value in assay [7] worked out at 90%. Further, in assay [8], the “Postemergence herbicidal activity (% control) IPOSS” value is 100%. Also, the “PREEMERGENCE HERBICIDAL ACTIVITY (% CONTROL) SOY” value in assay [9] is 100%. Besides, the “Postemergence herbicidal activity (% control) SOY” value in assay [10] stood at 95%. For the same compound, the “PREEMERGENCE HERBICIDAL ACTIVITY (% CONTROL) IPOSS” value in assay [11] amounted to 100%. The “PREEMERGENCE HERBICIDAL ACTIVITY (% CONTROL) STEME” value in assay [12] worked out at 100%. The “PREEMERGENCE HERBICIDAL ACTIVITY (% CONTROL) ALOMY” value in [13] was 100%. In addition, the “Postemergence herbicidal activity (% control) ALOMY” value in assay [14] stood at 90%. In assay [15], the “Postemergence herbicidal activity (% control) STEME” value was found to be 100%. Moreover, the “Postemergence herbicidal activity (% control) XANPE” value in assay [16] came out at 100%. The “PREEMERGENCE HERBICIDAL ACTIVITY (% CONTROL) SETVI” value in assay [17] came to 100%. The “Postemergence herbicidal activity (% control) SORHA” value in [18] is on record as 100%. In [19], the “PREEMERGENCE HERBICIDAL ACTIVITY (% CONTROL) CRN” value is given as 95%. In assay [20], the “Postemergence herbicidal activity (% control) SETVI” value is on record as 100%.

As for `Cn1c(C(F)(F)F)cc(=O)n(-c2c(F)cc(Cl)c3oc(N)nc23)c1=O` [Compound 38], the “PREEMERGENCE HERBICIDAL ACTIVITY (% CONTROL) ABUTH” value in [1] was determined as 100%. Further, in [2], the “PREEMERGENCE HERBICIDAL ACTIVITY (% CONTROL) SORHA” value was found to be 60%. Moreover, the “Postemergence herbicidal activity (% control) WHT” value in [3] amounted to 35%. Moreover, the “Postemergence herbicidal activity (% control) ABUTH” value in assay [4] was determined as 100%. Further, the “PREEMERGENCE HERBICIDAL ACTIVITY (% CONTROL) XANPE” value in [5] came out at 70%. Besides, the “PREEMERGENCE HERBICIDAL ACTIVITY (% CONTROL) WHT” value in [6] is reported as 50%. The “Postemergence herbicidal activity (% control) CRN” value in assay [7] worked out at 60%. For the same compound, the “Postemergence herbicidal activity (% control) IPOSS” value in assay [8] is 100%. Besides, in assay [9], the “PREEMERGENCE HERBICIDAL ACTIVITY (% CONTROL) SOY” value was found to be 60%. For the same compound, the “Postemergence herbicidal activity (% control) SOY” value in [10] stood at 70%. In addition, the “PREEMERGENCE HERBICIDAL ACTIVITY (% CONTROL) IPOSS” value in assay [11] came out at 100%. Further, the “PREEMERGENCE HERBICIDAL ACTIVITY (% CONTROL) STEME” value in assay [12] is 0%. For the same compound, the “PREEMERGENCE HERBICIDAL ACTIVITY (% CONTROL) ALOMY” value in [13] is recorded as 30%. For the same compound, the “Postemergence herbicidal activity (% control) ALOMY” value in assay [14] is on record as 20%. Besides, the “Postemergence herbicidal activity (% control) STEME” value in assay [15] worked out at 0%. Also, the “Postemergence herbicidal activity (% control) XANPE” value in assay [16] is recorded as 45%. Moreover, the “PREEMERGENCE HERBICIDAL ACTIVITY (% CONTROL) SETVI” value in [17] was 75%. For the same compound, in [18], the “Postemergence herbicidal activity (% control) SORHA” value is recorded as 50%. Also, in assay [19], the “PREEMERGENCE HERBICIDAL ACTIVITY (% CONTROL) CRN” value is 80%. Further, the “Postemergence herbicidal activity (% control) SETVI” value in [20] is given as 40%.

With `Cn1c(C(F)(F)F)cc(=O)n(-c2c(F)cc(Br)c3oc(N)nc23)c1=O` [Compound 98], in assay [1], the “PREEMERGENCE HERBICIDAL ACTIVITY (% CONTROL) ABUTH” value came to 80%. In addition, in assay [2], the “PREEMERGENCE HERBICIDAL ACTIVITY (% CONTROL) SORHA” value was 65%. For the same compound, the “Postemergence herbicidal activity (% control) WHT” value in [3] amounted to 10%. In assay [4], the “Postemergence herbicidal activity (% control) ABUTH” value came out at 60%. The “PREEMERGENCE HERBICIDAL ACTIVITY (% CONTROL) XANPE” value in assay [5] was 60%. Further, the “PREEMERGENCE HERBICIDAL ACTIVITY (% CONTROL) WHT” value in assay [6] was 40%. The “Postemergence herbicidal activity (% control) CRN” value in [7] was 50%. Moreover, in [8], the “Postemergence herbicidal activity (% control) IPOSS” value is listed as 20%. Moreover, the “PREEMERGENCE HERBICIDAL ACTIVITY (% CONTROL) SOY” value in [9] is recorded as 50%. Also, the “Postemergence herbicidal activity (% control) SOY” value in [10] worked out at 40%. Also, the “PREEMERGENCE HERBICIDAL ACTIVITY (% CONTROL) IPOSS” value in assay [11] came out at 75%. In addition, the “PREEMERGENCE HERBICIDAL ACTIVITY (% CONTROL) STEME” value in assay [12] is listed as 70%. Moreover, the “PREEMERGENCE HERBICIDAL ACTIVITY (% CONTROL) ALOMY” value in assay [13] was determined as 10%. Moreover, the “Postemergence herbicidal activity (% control) ALOMY” value in assay [14] worked out at 5%. Also, in assay [15], the “Postemergence herbicidal activity (% control) STEME” value was 5%. Also, in assay [16], the “Postemergence herbicidal activity (% control) XANPE” value came to 20%. Further, the “PREEMERGENCE HERBICIDAL ACTIVITY (% CONTROL) SETVI” value in [17] was determined as 30%. In addition, the “Postemergence herbicidal activity (% control) SORHA” value in assay [18] came to 20%. The “PREEMERGENCE HERBICIDAL ACTIVITY (% CONTROL) CRN” value in assay [19] amounted to 80%. For the same compound, the “Postemergence herbicidal activity (% control) SETVI” value in [20] came to 40%.

(Values after US6352958B1, “Cycloimido-substituted benzofused heterocyclic herbicides” (FMC Corporation, priority 1997, dated 2002).)
